Data published in PMC9193972, “Candidate Chemosensory Genes Identified in the Adult Antennae of Sympiezomias velatus and Binding Property of Odorant-Binding Protein 15” (Frontiers in Physiology, 2022).

Columns and labels:
[1] = target: recombinant SvelOBP15; assay: Fluorescence competitive binding assay with 1-NPN as fluorescent reporter; design: species or system Sympiezomias velatus; conditions: for Ki: calculated from IC50, mean ± SE, read-out: Ki (dissociation constant); for Ki / IC50: 1-NPN 2 μmol/L; for IC50: competitor 2 to 20 μmol/L, concentration halving the fluorescence of 1-NPN; for binding to SvelOBP15 (in words): competitive binding, competitor up to 20 μmol/L
Method: The whole ORF of SvelOBP15 was successfully validated by RT-PCR and Sanger sequencing and then synthesized (without the signal peptide-encoding region) by Sangon Biotech (Shanghai, China). It was first cloned into the pGEM-T cloning vector (Promega, Madison, United States) and then subcloned into the expression vector pET-30a(+) (Novagen, Darmstadt, Germany). Recombinant SvelOBP15 was expressed in Escherichia coli Transetta (DE3) following induction with 0.5 mM isopropyl-b-D-thiogalactopyranoside (IPTG) after the culture reached an OD600 of 0.4–0.6. Incubation was continued at 37°C with shaking at 220 rpm for an additional 6 h. […] Denaturation and renaturation were performed following previously reported methods ([Liu et al., 2012]). The protein was purified using a HisTrap HP prepacked column (GE Healthcare, Pittsburgh, United States) according to the manufacturer’s instructions, and recombinant enterokinase (rEK) (GenScript Biology Company, Nanjing, China) was used to remove the His-tag. After running the digested protein back through the HisTrap HP prepacked column, the tag-free protein was obtained in the flow-through fraction. Proteins were visualized at all stages of purification by SDS-PAGE.
(§1) Fluorescence competitive binding assays were performed as reported previously ([Liu et al., 2015]). This assay was conducted on a Hitachi F-7000 fluorescence spectrophotometer with a 1-cm light path quartz cuvette and 10-nm slits for both excitation and emission. The excitation wavelength was 337 nm, and the emission spectrum was recorded between 390 and 460 nm. First, to determine the binding affinities of N-phenyl-1-naphthylamine (1-NPN) to OBP15, the fluorescence intensity values at maximum fluorescence emissions were plotted against the free ligand concentration by titrating increasing concentrations of 1-NPN. The binding curves were linearized using Scatchard plots. Next, competitive binding assays of OBP15 to 33 chemicals (Supplementary Table S2) of different structural characteristics were carried out using 1-NPN as the fluorescent reporter at a concentration of 2 μmol/L, whereas the concentration of each competitor varied from 2 to 20 μmol/L. These chemicals included the volatile components of host plants such as peanut, elm, maize, cotton, etc. ([Hammack, 2001]; [Cardoza et al., 2002]; [Ngumbi et al., 2009]; [Cheng et al., 2010]) and aggregation pheromone components of curculionids ([Gries et al., 1993]; [Hallett et al., 1993]; [Eller et al., 1994]; [Szendrei et al., 2011]). Chemicals were purchased from Sigma-Aldrich (St. Louis, United States) (purity >95% or 90%). Based on the assumption that the activity of proteins was 100% with a saturation stoichiometry of 1:1 (protein: ligand), the dissociation constants (Ki) of the competitors were calculated from the IC50 values (the concentrations of the ligands halving the fluorescence of 1-NPN) using the following equation:
Ki = [IC50]/(1 + [1-NPN]/K1-NPN) ([Ban et al., 2003]).Where [1-NPN] is the free concentration of 1-NPN and K1-NPN is the dissociation constant of the complex protein/1-NPN.
Ki values of various compounds (mean ± SE) were subjected to one-way ANOVA followed by Tukey post hoc test for mean comparison using SPSS Statistics 20.0 (SPSS Inc., Chicago, United States).

[2] = target: recombinant SvelOBP15; assay: 1-NPN titration (binding curve, Scatchard plot); design: species or system Sympiezomias velatus; conditions: titration with increasing 1-NPN, read-out: dissociation constant of 1-NPN
Method: as §1, with “Based on the assumption that the activity of proteins was 100% with a saturation stoichiometry of 1:1 (protein: ligand), the dissociation constants (Ki) of the competitors were calculated from the IC50 values (the concentrations of the ligands halving the fluorescence of 1-NPN) using the following equation:” left out

[3] = system: AquaOBP4; design: method as in Wang et al., 2017; conditions: ref Wang et al., 2017; cited from earlier work
[4] = system: SzeaOBP28; design: method as in Zhang Y. et al., 2019; conditions: ref Zhang Y. et al., 2019; cited from earlier work

| Molecule | IC50 [1] [µM] | further results |
| --- | --- | --- |
| C=CC(C)(O)CCC=C(C)CCC=C(C)C (mixture of isomers) [Nerolidol] |  | Ki [1]: 12.9 ± 0.43 µM |
| Cc1cccc2ccccc12 [1-Methylnaphthalene] | > 20 |  |
| c1ccc(Nc2cccc3ccccc23)cc1 [1-NPN, N-phenyl-1-naphthylamine] |  | Kd [2]: 4.68 ± 0.16 µM |
| C=CC(O)CCCCC (stereo not shown) [1-Octen-3-ol] | > 20 |  |
| CC(=O)c1ccc(C)c(C)c1 [3',4'-Dimethylacetophenone] | > 20 |  |
| CCCCC(O)C(C)CC (stereo not shown) [3-Methyl-4-octanol] | > 20 |  |
| CCc1ccc(C(C)=O)cc1 [4-Ethylacetophenone] | > 20 |  |
| CCCCC(O)C(C)CCC (stereo not shown) [4-Methyl-5-nonanol] | > 20 |  |
| CCCCC(=O)C(C)CCC (stereo not shown) [4-Methyl-5-nonanone] | > 20 |  |
| O=C1CCCC1C1CCCC1 (stereo not shown) [(1,1`-Bicyclopentyl)-2-one] | > 20 |  |
| C=C1CC/C=C(\C)CC[C@@H]2[C@@H]1CC2(C)C [(-)-trans-Caryophyllene] | > 20 |  |
| CC(C)=CCC/C(C)=C/CO [(E)-3,7-Dimethyl-2,6-octadien-1-ol] | > 20 |  |
| CC(C)=CCC/C(C)=C/CC/C(C)=C/CO [(E,E)-Farnesol] | 9.26 ± 0.43 | Ki [1]: 7.36 ± 0.36 µM |
| O=Cc1ccccc1 [Benzalehyde] | > 20 |  |
| CC(C)COC(=O)CCCCC(=O)OCC(C)C [Diisobutyl adipate] | > 20 |  |
| CC(C)COC(=O)c1ccccc1C(=O)OCC(C)C [Diisobutyl phthalate] | 15.8 ± 0.42 | binding to AquaOBP4 (in words) [3]: weakly bound; Ki [1]: 12.6 ± 0.34 µM |
| CCCCCCCCCCCC [Dodecane] | > 20 | binding to SvelOBP15 (in words) [1]: cannot be bound |
| CC(C)=CCC/C(C)=C/C(=O)O [Geranic acid] | > 20 |  |

| Molecule | IC50 [1] [µM] | further results |
| --- | --- | --- |
| C=C(C)[C@H]1CC=C(C)CC1 [Limonene] | 14.7 ± 0.53 | Ki [1]: 11.7 ± 0.47 µM |
| C=CC(C)(O)CCC=C(C)C (stereo not shown) [Linalool] | > 20 |  |
| COC(=O)c1ccccc1O [Methyl salicylate] | > 20 |  |
| CCCCCCCCC=O [Nonanal] | > 20 |  |
| CCCCCCCCCCCCCCCC(=O)O [Palmitic acid] | > 20 |  |
| CCCCCCCCCCCCCCC [Pentadecane] | > 20 | binding to SvelOBP15 (in words) [1]: cannot be bound |
| CCCCCCCCCCCCCC [Tetradecane] | > 20 | binding to SvelOBP15 (in words) [1]: cannot be bound |
| CC/C=C\CCO [Z-3-hexen-1-ol] | > 20 |  |
| COCCOC(=O)c1ccccc1C(=O)OCCOC [bis (2-methoxyethyl) phthalate] |  | binding to SzeaOBP28 (in words) [4]: exhibited a binding affinity |
| CC/C=C\CCOC(C)=O [cis-3-Hexenyl acetate] | > 20 |  |
| CCCCCCCCCCCCCCCC [n-Hexadecane] | > 20 | binding to SvelOBP15 (in words) [1]: cannot be bound |
| CCC/C=C/COC(C)=O [trans-2-Hexenyl acetate] | > 20 |  |
| CCC/C=C/C=O [trans-2-Hexenyl aldehyde] | > 20 |  |
| C=C/C(C)=C/C/C=C(\C)CCC=C(C)C [α-Farnesene] | > 20 |  |
| C=C/C(C)=C/CC=C(C)C [β-Ocimene] | > 20 |  |
| (+)-α-Pinene | > 20 |  |
| (+)-β-Pinene | > 20 |  |
